Literature values, collected in paper PMC11979685, “Synthesis of Derivatives of the Antibiotic Albicidin: The N‐Terminal Fragment as Key to Control Potency and Resistance Mediated by the Binding Protein AlbA” (Chemistry (Weinheim an Der Bergstrasse, Germany), 2025).
Converted amounts (≈) assume the structure as drawn.

Key:
Parameters in all cases: method as in PMID 36741192
[1] = tested on: Salmonella typhimurium TA100; conditions: already published elsewhere; cited from earlier work
[2] = tested on: Mycobacterium phlei DSM 750; conditions: already published elsewhere; cited from earlier work
E. coli DNA gyrase = E. coli DNA gyrase (Escherichia coli, UniProt P0AES4); conditions: E. coli gyrase DNA cleavage; already published elsewhere; read-out: CC50 (concentration at half-maximum cleavage); cited from earlier work
E. coli = E. coli in presence of 50 % human serum; already published elsewhere; cited from earlier work
[3] = tested on: Micrococcus luteus DSM 1790; conditions: already published elsewhere; cited from earlier work
E. coli DSM1116 = conditions: already published elsewhere; cited from earlier work
E. coli BW25113 = conditions: already published elsewhere; cited from earlier work
Bacillus subtilis DSM 10 = conditions: already published elsewhere; cited from earlier work

Chain of E. coli DNA gyrase (P0AES4 whole entry): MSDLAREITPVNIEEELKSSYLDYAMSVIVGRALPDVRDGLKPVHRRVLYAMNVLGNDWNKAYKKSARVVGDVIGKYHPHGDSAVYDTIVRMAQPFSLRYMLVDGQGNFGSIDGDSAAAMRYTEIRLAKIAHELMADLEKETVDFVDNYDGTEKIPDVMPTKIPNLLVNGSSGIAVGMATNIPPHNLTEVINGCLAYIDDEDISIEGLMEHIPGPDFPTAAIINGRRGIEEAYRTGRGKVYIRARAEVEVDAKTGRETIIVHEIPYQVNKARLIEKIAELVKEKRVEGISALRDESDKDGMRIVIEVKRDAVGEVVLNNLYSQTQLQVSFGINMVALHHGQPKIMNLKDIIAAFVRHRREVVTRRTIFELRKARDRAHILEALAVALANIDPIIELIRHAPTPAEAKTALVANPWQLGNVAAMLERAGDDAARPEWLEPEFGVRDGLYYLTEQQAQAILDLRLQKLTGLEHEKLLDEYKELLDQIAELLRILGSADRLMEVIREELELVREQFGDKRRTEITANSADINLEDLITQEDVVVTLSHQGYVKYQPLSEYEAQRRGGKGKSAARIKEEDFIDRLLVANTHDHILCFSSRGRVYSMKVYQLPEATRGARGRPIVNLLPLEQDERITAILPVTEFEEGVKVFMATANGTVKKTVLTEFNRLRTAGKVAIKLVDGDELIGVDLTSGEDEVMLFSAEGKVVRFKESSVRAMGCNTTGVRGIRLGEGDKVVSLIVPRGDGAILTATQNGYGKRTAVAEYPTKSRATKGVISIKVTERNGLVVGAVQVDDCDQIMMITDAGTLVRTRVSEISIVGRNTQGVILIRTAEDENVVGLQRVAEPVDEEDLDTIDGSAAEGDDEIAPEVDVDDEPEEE

## COc1c(NC(=O)c2ccc(NC(=O)c3ccc(NC(=O)[C@H](Cc4c[nH]nn4)NC(=O)c4ccc(NC(=O)c5ccc6nc(C)ccc6c5)cc4)cn3)c(OC)c2O)ccc(C(=O)O)c1O [compound 16]
[1]
  MIC S. typh.: ≤0.016 µg/mL
[2]
  MIC M. phlei: 0.5 µg/mL (≈ 0.559 µM)
E. coli DNA gyrase
  CC50: 25 nM
E. coli
  MICEc 50%HS: 0.5 µg/mL
[3]
  MIC M. luteus: 0.063 µg/mL (≈ 0.0704 µM)
E. coli DSM1116
  MIC E. coli DSM1116: 0.016 µg/mL (≈ 0.0179 µM)
E. coli BW25113
  MIC E. coli BW25113: 0.016 µg/mL (≈ 0.0179 µM)
Bacillus subtilis DSM 10
  MIC B. sub.: 0.063 µg/mL (≈ 0.0704 µM)
